Source: paper PMC9416745, “The Effect of 1,2,4-Triazole-3-thiol Derivatives Bearing Hydrazone Moiety on Cancer Cell Migration and Growth of Melanoma, Breast, and Pancreatic Cancer Spheroids” (Pharmaceuticals, 2022)

Columns and labels:
melanoma IGR39 spheroids = assay: 3D cell cultures (spheroids), IGR39; format: cell-based, human; conditions: 10 µM, 8 days of incubation
Protocol: (§1) Cancer cell spheroids were formed using the magnetic 3D Bioprinting method, as described elsewhere. Briefly, melanoma IGR39, triple-negative breast cancer MDA-MB-231 cells, pancreatic cancer Panc-1 cells, and human fibroblasts at 70% confluency in a 6-well plate were incubated with Nanoshuttle (n3D Biosciences, Inc., Houston, TX, USA) for 8 h at 37°C in a humidified atmosphere containing 5% CO2. Then cells were trypsinized, centrifuged, and seeded into an ultra-low attachment 96-well plate in a volume of 100 µL (1.5 × 10^3 cancer cells and 1.5 × 10^3 human fibroblasts/well). The plate was placed on a magnetic drive and incubated for 2 days at 37°C in a humidified atmosphere containing 5% CO2. Then the fresh medium containing 10 µM of the tested compound was added to the wells. Spheroids were captured every two days using the Olympus IX73 inverted microscope (OLYMPUS CORPORATION, Tokyo, Japan). Quantitative analysis of compound anticancer activity in spheroids was performed using ImageJ, version 1.53o (National Institutes of Health, USA) and Microsoft Office Excel 2016 software (Microsoft Corporation, Redmond, WA, USA).
(§2) On the last day of incubation, 10 µL of WST-1 reagent (Sigma-Aldrich Co, St. Louis, MO, USA) was added to each well with spheroids. After 10 h of incubation, 50 µL of liquid from each well were transferred to the new 96-well plate and the absorbance was measured at 460 and 530 nm using a multi-detection microplate reader. Spheroid cell viability was calculated using a formula provided in Section 3.2.2.

Panc-1 cells = assay: MTT, effect of 10 µM compound on Panc-1 cell viability (Procedure S1); format: cell-based; conditions: Homo sapiens, after 72 h
Protocol: (§3) The ‘Wound healing’ assay was used to evaluate compound activity on cell migration. […] The effect of this concentration on cell viability after 24 h, 48 h and 72 h was studied in separate experiments (Figures S58–60) using the MTT assay (the procedure is described in Supplementary Materials).
(§4) Procedure S1. Evaluation of 10 µM compound concentration effect on cell line viability.
(§5) The effect of 10 µM compounds on cell viability was studied using 3-(4,5-dimethylthiazol-2-yl)-2,5-diphenyltetrazolium bromide (MTT; Sigma-Aldrich Co., St Louis, MO, USA) assay. IGR39, MDA-MB-231, and Panc-1 cells were seeded in 96-well plates (Corning) in triplicates at a volume of 100 µL at 4 × 10^3 cells/well). After 24 h, the cells were treated with 10 µM of compounds 4, 7, 8, 10, 14, 17, and 18. After 24 h, 48 h and 72 h (only Panc-1 cells), the MTT reagent has been added and cells were incubated for 4 h. Then the medium was aspirated, and the formed formazan crystals were dissolved in 100 µL DMSO (Sigma-Aldrich Co., St. Louis, MO, USA). The absorbance was measured at 570 and 630 nm using a multi-detection microplate reader. Compound effect on cell viability was calculated according to a formula:
(§6) Relative cell viability ሺ%ሻ = A− A଴
(§7) A – mean of absorbance of tested compound, A0 – mean of absorbance of blank (no cells, positive control), ANC – mean of absorbance of negative control (only cells, no treatment).

[1] = tested on: human malignant melanoma cell line IGR39; assay: MTT cell viability assay, IGR39; format: cell-based; conditions: 50 µM, 72 h
Protocol: (§8) The effect of synthesized compounds on cell viability was studied using 3-(4,5-dimethylthiazol-2-yl)-2,5-diphenyltetrazolium bromide (MTT; Sigma-Aldrich Co., St Louis, MO, USA) assay, as described elsewhere. Briefly, IGR39, MDA-MB-231, Panc-1, and HF cells were seeded in 96-well plates (Corning) in triplicate at a volume of 100 μL (IGR39, MDA-MB-231 and Panc-1: 4 × 10^3 cells/well; HF: 5 × 10^3 cells/well). After 24 h, cells were treated with 50 μM of tested compounds. After 72 h, the MTT reagent was added and cells were incubated for 4 h. Then the medium was aspirated, and the formed formazan crystals were dissolved in 100 μL DMSO (Sigma-Aldrich Co., St. Louis, MO, USA). The absorbance was measured at 570 and 630 nm using a multi-detection microplate reader. The compound effect on cell viability was calculated using the formula:(1) Relative cell viability (%)=A−A0/ANC−A0 where
(§9) • A—mean of absorbance of the tested compound, • A0—mean of absorbance of blank (no cells, positive control), and • ANC—mean of absorbance of negative control (only cells, no treatment).
(§10) The compound serial dilutions from 50 µM to 1.56 µM were made in a medium and added to the cells in triplicates. The EC50 value representing the concentration of a compound causing 50% reduction of cancer cell metabolic activity was calculated using the Hill equation.

[2] = tested on: IGR39, MDA-MB-231 and Panc-1 tumour spheroids; assay: 3D cell cultures (spheroids), stated for all three spheroid types; format: cell-based, human; conditions: 10 µM, 8 days of incubation
Protocol: as §1, §2

[3] = tested on: IGR39, MDA-MB-231 and Panc-1 cell migration; assay: 'Wound healing' cell migration assay, stated for all tested cell lines; format: cell-based, human; conditions: 10 µM, compared to the control
Protocol: (§11) Briefly, melanoma IGR39, human triple-negative breast cancer MDA-MB-231, and pancreatic carcinoma Panc-1 cells were seeded in 24-well plates at a density of 6 × 10^4 cells/well and incubated for 48 h in previously described cell culture medium at 37°C in a humidified atmosphere containing 5% CO2. Then the scratch was made using a 100 µL pipette tip. Cells were washed once with PBS, and the fresh medium containing 10 µM of compounds 4, 7, 8, 10, 14, 17, and 18 was added. Medium containing 0.1% DMSO was used as a negative control. Cells were incubated at 37 °C in a humidified atmosphere containing 5% CO2.
(§12) The ‘Wounds’ were captured at the intervals of 0 h, 24 h, 48 h and 72 h (only for the Panc-1 cell line) from scratch under the phase contrast microscope at a 4× magnification. The wound area was analysed using the ImageJ program (National Institute of Health, Bethesda, MD, USA).

[4] = tested on: IGR39, MDA-MB-231 and Panc-1 cell lines; assay: MTT cell viability assay, result stated for all tested cancer cell lines together; format: cell-based, human; conditions: 72 h; for EC50: Homo sapiens, range over cancer cell lines, read-out: EC50 values against the tested cancer cell lines (range)
Protocol: as §8, §9, §10

[5] = tested on: human triple-negative breast cancer MDA-MB-231; assay: MTT cell viability assay, MDA-MB-231; format: cell-based; conditions: 50 µM, 72 h
Protocol: as §8, §9, §10

IGR39 cells = assay: MTT, effect of 10 µM compound on IGR39 cell viability (Procedure S1); format: cell-based; conditions: Homo sapiens, IGR-39, after 48 h of incubation
Protocol: as §3, §4, §5, §6, §7

[6] = tested on: MDA-MB-231 cell migration; assay: 'Wound healing' cell migration assay, MDA-MB-231; format: cell-based, human; conditions: 10 µM, both after 24 h and 48 h of incubation
Protocol: as §11, §12

melanoma A375 cell = tested on: melanoma A375 cell; parameters: method as in PMID 21700700; conditions: cited from earlier work
melanoma cell = tested on: melanoma cell; parameters: method as in PMID 27572607; conditions: cited from earlier work

SMILES	melanoma IGR39 spheroid growth (melanoma IGR39 spheroids)	viability at 10 µM (Panc-1 cells) [%]	activity in 3D cell cultures (spheroids) [2]	EC50 [4] [µM]	melting point [°C]	viability at 10 µM (IGR39 cells) [%]	MDA-MB-231 cell migration [6]	other results
O=C(CSc1nnc(CCNc2ccccc2)n1-c1ccccc1)NN=C1C(=O)Nc2ccccc21 [Compound 4, N′-(2-oxoindolin-3-ylidene)-2-((4-phenyl-5-(2-(phenylamino)ethyl)-4H-1,2,4-triazol-3-yl)thio)acetohydrazide]	mostly inhibited	74.3 ± 3.4	most active	2 to 17	252 to 253			selectivity against the melanoma IGR39 cell line (screening) [1]: moderate selectivity; effect on cell migration [3]: did not possess activity
O=C(CSc1nnc(CCNc2ccccc2)n1-c1ccccc1)NN=Cc1ccc[nH]1 [Compound 14, N′-((1H-pyrrol-2-yl)methylene)-2-((4-phenyl-5-(2-(phenylamino)ethyl)-4H-1,2,4-triazol-3-yl)thio)acetohydrazide]	mostly inhibited		most active	2 to 17	215 to 216	67.9 ± 1.8	migrated slower	activity towards the triple-negative breast cancer cell line (screening) [5]: relatively higher activity; activity against the IGR39 cell line (screening) [1]: least active
CN(C)/N=N/c1[nH]cnc1C(N)=O [Dacarbazine]								concentrations inhibiting melanoma A375 cell proliferation (melanoma A375 cell): 25 to 100 µM
CC(C)(C)c1nc(-c2cccc(NS(=O)(=O)c3c(F)cccc3F)c2F)c(-c2ccnc(N)n2)s1 [dabrafenib]								concentration reducing melanoma cell viability (melanoma cell): nanomolar
O=C(CSc1nnc(CCNc2ccccc2)n1-c1ccccc1)NN=Cc1ccccc1O [Compound 17, N′-(2-hydroxybenzylidene)-2-((4-phenyl-5-(2-(phenylamino)ethyl)-4H-1,2,4-triazol-3-yl)thio)acetohydrazide]	began to disintegrate	79.7 ± 3.8	most active			76 ± 7.2	migrated slower	activity against all tested cancer cell lines (screening) ([4]; 50 µM): most active
